Data on one molecule can be found in PubChem BioAssay (NCI).

Some test systems named below: EKVX NSCLC; SR leukemia; RXF 393 renal; OVCAR-4 ovarian; SN12C renal; SK-MEL-5 melanoma; KM12 colon; SW-620 colon; SF-539 CNS; PC-3 prostate.
Common to all, as to experiment: inhibition of tumour cell growth, NCI panel, 48 h

The structures appear in SMILES notation.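 Cells were grown in 96-well plates and exposed to each compound for 48 hours at five concentrations; endpoints were interpolated linearly between bracketing concentrations, or set to the highest concentration if not reached. At the GI50, growth is halved. Definition used: TGI = concentration required for complete inhibition of growth.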

Turning to `CC/C=C\C[C@H](O)C/C=C1/C(=O)C=C[C@@H]1C/C=C\CCCC(=O)N(C)C`, the GI50 in the experiment on EKVX NSCLC was 3.92 µM; in the experiment on SR leukemia, 0.376 µM; in the experiment on RXF 393 renal it was 1.73 µM; in the experiment with OVCAR-4 ovarian it was 2.07 µM; with SN12C renal, 2.6 µM; with SK-MEL-5 melanoma, 1.6 µM. The GI50 in the experiment on KM12 colon was 0.709 µM; with SW-620 colon, 0.851 µM; with SF-539 CNS it was 2.18 µM; with PC-3 prostate, 1.78 µM. The TGI in the experiment with EKVX NSCLC was found to be 15.6 µM; with SR leukemia, 12.3 µM; in the experiment with RXF 393 renal, 3.26 µM; in the experiment with OVCAR-4 ovarian it was 13.5 µM; in the experiment on SN12C renal, 10.9 µM; in the experiment with SK-MEL-5 melanoma it was 3 µM. Also, the TGI was found to be 4.03 µM in the experiment on KM12 colon, 6.16 µM in the experiment on SW-620 colon, 7.14 µM in the experiment with SF-539 CNS and 4.47 µM in the experiment on PC-3 prostate.
